Some results are limits rather than exact numbers.

In the experiment the target is T1, PLK1 (Homo sapiens, UniProt P53350).
T1 construct: endogenous in cells; host or cells: HeLa
The experiment is described as follows: PLK1 protein degradation in HeLa cells, Western blotting (PLK1/GAPDH ratio). It is filed as cell-based. As to conditions: 6 hours compound incubation; for DC50: measured only if the grade of Dmax is A or B; for Dmax: thymidine block and release, 10 points three-fold from 3 μM, PLK1 to GAPDH ratio, read-out: Dmax. Summed up: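 PLK1 level measured by Western blot as PLK1/GAPDH in HeLa lysates (15 μg protein per lane). Cells were blocked with 2 mM thymidine 24 h, released 4 h, and exposed 6 h to compound, 10 concentrations, 3-fold steps, top 3 μM.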
(In general: In western blotting, separated proteins are transferred to a membrane and probed.)

T1 sequence (P53350 whole entry): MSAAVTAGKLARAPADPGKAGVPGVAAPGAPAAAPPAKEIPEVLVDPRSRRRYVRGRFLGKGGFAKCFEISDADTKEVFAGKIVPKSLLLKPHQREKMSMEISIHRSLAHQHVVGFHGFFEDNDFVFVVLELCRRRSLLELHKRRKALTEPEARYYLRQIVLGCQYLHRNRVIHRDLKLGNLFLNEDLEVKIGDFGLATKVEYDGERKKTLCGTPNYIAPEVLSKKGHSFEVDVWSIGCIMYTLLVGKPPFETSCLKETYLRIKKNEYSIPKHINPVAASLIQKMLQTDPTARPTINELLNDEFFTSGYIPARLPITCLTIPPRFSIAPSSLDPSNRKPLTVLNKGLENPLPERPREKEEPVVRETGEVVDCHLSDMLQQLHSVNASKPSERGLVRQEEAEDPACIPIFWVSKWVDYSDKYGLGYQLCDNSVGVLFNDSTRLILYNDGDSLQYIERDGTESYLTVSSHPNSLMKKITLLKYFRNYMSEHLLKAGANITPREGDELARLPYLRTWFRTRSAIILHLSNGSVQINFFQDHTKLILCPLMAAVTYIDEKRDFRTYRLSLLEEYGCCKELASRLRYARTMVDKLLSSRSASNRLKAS

A word on the DC50: it is the concentration giving 50% degradation. A word on the Dmax: it is the greatest extent of degradation seen. On to `COc1cc(C(=O)NC2CCN(CCOCCOCCNc3cccc4c3C(=O)N(C3CCC(=O)NC3=O)C4=O)CC2)c(F)cc1Nc1ncc2c(n1)N(C(C)C)CC(F)(F)C(=O)N2C` (centres unmarked) [Example 100, 4-((7,7-difluoro-9-isopropyl-5-methyl-6-oxo-6,7,8,9-tetrahydro-5H-pyrimido[4,5-b][1,4]diazepin-2-yl)amino)-N-(1-(2-(2-(2-((2-(2,6-dioxopiperidin-3-yl)-1,3-dioxoisoindolin-4-yl)amino)ethoxy)ethoxy)ethyl)piperidin-4-yl)-2-fluoro-5-methoxybenzamide], for which the DC50 is no more than 500 nM and the Dmax was in the range of 60 to 80%.

On to `COc1cc(C(=O)NC2CCN(CCOCCOCCOCCOCCNc3cccc4c3C(=O)N(C3CCC(=O)NC3=O)C4=O)CC2)c(F)cc1Nc1ncc2c(n1)N(C(C)C)CC(F)(F)C(=O)N2C` (centres unmarked) [Example 101, 4-((7,7-difluoro-9-isopropyl-5-methyl-6-oxo-6,7,8,9-tetrahydro-5H-pyrimido[4,5-b][1,4]diazepin-2-yl)amino)-N-(1-(14-((2-(2,6-dioxopiperidin-3-yl)-1,3-dioxoisoindolin-4-yl)amino)-3,6,9,12-tetraoxatetradecyl)piperidin-4-yl)-2-fluoro-5-methoxybenzamide], for which the DC50 was no more than 50 nM and the Dmax is no less than 80%.

For `CN1C(=O)C(F)(F)CN(C2CCCC2)c2nc(Nc3ccc(C(=O)NC4CCN(C(=O)CCCNc5cccc6c5C(=O)N(C5CCC(=O)NC5=O)C6=O)CC4)cc3)ncc21` (centres unmarked) [Example 102, 4-((9-cyclopentyl-7,7-difluoro-5-methyl-6-oxo-6,7,8,9-tetrahydro-5H-pyrimido[4,5-b][1,4]diazepin-2-yl)amino)-N-(1-(4-((2-(2,6-dioxopiperidin-3-yl)-1,3-dioxoisoindolin-4-yl)amino)butanoyl)piperidin-4-yl)benzamide], the 50% degradation concentration (DC50) is no more than 50 nM and the Dmax is no less than 80%.

As for `COc1cc(C(=O)N[C@H]2CC[C@H](N3CCN(CCOCCNc4cccc5c4C(=O)N(C4CCC(=O)NC4=O)C5=O)CC3)CC2)c(F)cc1Nc1ncc2c(n1)N(C1CCCC1)CC(F)(F)C(=O)N2C` (some centres unmarked) [Example 103, 4-((9-cyclopentyl-7,7-difluoro-5-methyl-6-oxo-6,7,8,9-tetrahydro-5H-pyrimido[4,5-b][1,4]diazepin-2-yl)amino)-N-((1r,4r)-4-(4-(2-(2-((2-(2,6-dioxopiperidin-3-yl)-1,3-dioxoisoindolin-4-yl)amino)ethoxy)ethyl)piperazin-1-yl)cyclohexyl)-2-fluoro-5-methoxybenzamide], the DC50 was no more than 50 nM and the Dmax is no less than 80%.

Consider `COc1cc(C(=O)NC2CCCN(CCOCCOCCNc3cccc4c3C(=O)N(C3CCC(=O)NC3=O)C4=O)C2)c(F)cc1Nc1ncc2c(n1)N(C1CCCC1)CC(F)(F)C(=O)N2C` (centres unmarked) [Example 104, 4-((9-cyclopentyl-7,7-difluoro-5-methyl-6-oxo-6,7,8,9-tetrahydro-5H-pyrimido[4,5-b][1,4]diazepin-2-yl)amino)-N-(1-(2-(2-(2-((2-(2,6-dioxopiperidin-3-yl)-1,3-dioxoisoindolin-4-yl)amino)ethoxy)ethoxy)ethyl)piperidin-3-yl)-2-fluoro-5-methoxybenzamide], for which the half-maximal degradation concentration (DC50) is no more than 50 nM and the Dmax was no less than 80%.

With `COc1cc(C(=O)NC2CCCN(CCOCCNc3cccc4c3C(=O)N(C3CCC(=O)NC3=O)C4=O)C2)c(F)cc1Nc1ncc2c(n1)N(C1CCCC1)CC(F)(F)C(=O)N2C` (centres unmarked) [Example 105, 4-((9-cyclopentyl-7,7-difluoro-5-methyl-6-oxo-6,7,8,9-tetrahydro-5H-pyrimido[4,5-b][1,4]diazepin-2-yl)amino)-N-(1-(2-(2-((2-(2,6-dioxopiperidin-3-yl)-1,3-dioxoisoindolin-4-yl)amino)ethoxy)ethyl)piperidin-3-yl)-2-fluoro-5-methoxybenzamide], the DC50 was no more than 500 nM and the maximal degradation (Dmax) was in the range of 60 to 80%.

Turning to `COc1cc(C(=O)NC2CCN(CCOCCNc3cccc4c3C(=O)N(C3CCC(=O)NC3=O)C4=O)C2)c(F)cc1Nc1ncc2c(n1)N(C1CCCC1)CC(F)(F)C(=O)N2C` (centres unmarked) [Example 106, 4-((9-cyclopentyl-7,7-difluoro-5-methyl-6-oxo-6,7,8,9-tetrahydro-5H-pyrimido[4,5-b][1,4]diazepin-2-yl)amino)-N-(1-(2-(2-((2-(2,6-dioxopiperidin-3-yl)-1,3-dioxoisoindolin-4-yl)amino)ethoxy)ethyl)pyrrolidin-3-yl)-2-fluoro-5-methoxybenzamide], the DC50 was no more than 500 nM and the Dmax is 60 to 80%.

Take `COc1cc(C(=O)NC2CCN(CCOCCOCCNc3cccc4c3C(=O)N(C3CCC(=O)NC3=O)C4=O)C2)c(F)cc1Nc1ncc2c(n1)N(C1CCCC1)CC(F)(F)C(=O)N2C` (centres unmarked) [Example 107, 4-((9-cyclopentyl-7,7-difluoro-5-methyl-6-oxo-6,7,8,9-tetrahydro-5H-pyrimido[4,5-b][1,4]diazepin-2-yl)amino)-N-(1-(2-(2-(2-((2-(2,6-dioxopiperidin-3-yl)-1,3-dioxoisoindolin-4-yl)amino)ethoxy)ethoxy)ethyl)pyrrolidin-3-yl)-2-fluoro-5-methoxybenzamide]: the DC50 was no more than 50 nM and the Dmax is no less than 80%.

Consider `COc1cc(C(=O)NC2CCN(CCOCCOCCOCCOCCNc3cccc4c3C(=O)N(C3CCC(=O)NC3=O)C4=O)C2)c(F)cc1Nc1ncc2c(n1)N(C1CCCC1)CC(F)(F)C(=O)N2C` (centres unmarked) [Example 108, 4-((9-cyclopentyl-7,7-difluoro-5-methyl-6-oxo-6,7,8,9-tetrahydro-5H-pyrimido[4,5-b][1,4]diazepin-2-yl)amino)-N-(1-(14-((2-(2,6-dioxopiperidin-3-yl)-1,3-dioxoisoindolin-4-yl)amino)-3,6,9,12-tetraoxatetradecyl)pyrrolidin-3-yl)-2-fluoro-5-methoxybenzamide], for which the DC50 is no more than 50 nM and the Dmax is no less than 80%.

Turning to `COc1cc(C(=O)NC2CCN(CCCCCNc3cccc4c3C(=O)N(C3CCC(=O)NC3=O)C4=O)C2)c(F)cc1Nc1ncc2c(n1)N(C1CCCC1)CC(F)(F)C(=O)N2C` (centres unmarked) [Example 109, 4-((9-cyclopentyl-7,7-difluoro-5-methyl-6-oxo-6,7,8,9-tetrahydro-5H-pyrimido[4,5-b][1,4]diazepin-2-yl)amino)-N-(1-(5-((2-(2,6-dioxopiperidin-3-yl)-1,3-dioxoisoindolin-4-yl)amino)pentyl)pyrrolidin-3-yl)-2-fluoro-5-methoxybenzamide], the DC50 is no more than 500 nM and the Dmax was in the range of 60 to 80%.

With `COc1cc(C(=O)NC2CCN(CCOCCCNc3cccc4c3C(=O)N(C3CCC(=O)NC3=O)C4=O)C2)c(F)cc1Nc1ncc2c(n1)N(C1CCCC1)CC(F)(F)C(=O)N2C` (centres unmarked) [Example 110, 4-((9-cyclopentyl-7,7-difluoro-5-methyl-6-oxo-6,7,8,9-tetrahydro-5H-pyrimido[4,5-b][1,4]diazepin-2-yl)amino)-N-(1-(2-(3-((2-(2,6-dioxopiperidin-3-yl)-1,3-dioxoisoindolin-4-yl)amino)propoxy)ethyl)pyrrolidin-3-yl)-2-fluoro-5-methoxybenzamide], the DC50 was no more than 50 nM and the Dmax is no less than 80%.

With `COc1cc(C(=O)NC2CCN(CCCOCCCNc3cccc4c3C(=O)N(C3CCC(=O)NC3=O)C4=O)C2)c(F)cc1Nc1ncc2c(n1)N(C1CCCC1)CC(F)(F)C(=O)N2C` (centres unmarked) [Example 111, 4-((9-cyclopentyl-7,7-difluoro-5-methyl-6-oxo-6,7,8,9-tetrahydro-5H-pyrimido[4,5-b][1,4]diazepin-2-yl)amino)-N-(1-(3-(3-((2-(2,6-dioxopiperidin-3-yl)-1,3-dioxoisoindolin-4-yl)amino)propoxy)propyl)pyrrolidin-3-yl)-2-fluoro-5-methoxybenzamide], the DC50 was no more than 50 nM and the Dmax was no less than 80%.

Regarding `COc1cc(C(=O)N[C@H]2CCN(CCOCCNC(=O)CNc3cccc4c3C(=O)N(C3CCC(=O)NC3=O)C4=O)C2)c(F)cc1Nc1ncc2c(n1)N(C1CCCC1)CC(F)(F)C(=O)N2C` (stereo partly drawn) [Example 112, 4-((9-cyclopentyl-7,7-difluoro-5-methyl-6-oxo-6,7,8,9-tetrahydro-5H-pyrimido[4,5-b][1,4]diazepin-2-yl)amino)-N-((3S)-1-(2-(2-(2-((2-(2,6-dioxopiperidin-3-yl)-1,3-dioxoisoindolin-4-yl)amino)acetamido)ethoxy)ethyl)pyrrolidin-3-yl)-2-fluoro-5-methoxybenzamide], the DC50 was no more than 500 nM and the Dmax is 60 to 80%.

On to `COc1cc(C(=O)NCCCCCc2cccc3c2CN(C2CCC(=O)NC2=O)C3=O)c(F)cc1Nc1ncc2c(n1)N(C1CCCC1)CC(F)(F)C(=O)N2C` (centres unmarked) [Example 165, 4-((9-cyclopentyl-7,7-difluoro-5-methyl-6-oxo-6,7,8,9-tetrahydro-5H-pyrimido[4,5-b][1,4]diazepin-2-yl)amino)-N-(5-(2-(2,6-dioxopiperidin-3-yl)-1-oxoisoindolin-4-yl)pentyl)-2-fluoro-5-methoxybenzamide], for which the Dmax was less than 60%.

For `COc1cc(C(=O)NCCCCCCCc2cccc3c2CN(C2CCC(=O)NC2=O)C3=O)c(F)cc1Nc1ncc2c(n1)N(C1CCCC1)CC(F)(F)C(=O)N2C` (centres unmarked) [Example 166, 4-((9-cyclopentyl-7,7-difluoro-5-methyl-6-oxo-6,7,8,9-tetrahydro-5H-pyrimido[4,5-b][1,4]diazepin-2-yl)amino)-N-(7-(2-(2,6-dioxopiperidin-3-yl)-1-oxoisoindolin-4-yl)heptyl)-2-fluoro-5-methoxybenzamide], the Dmax is 60 to 80%.

For `COc1cc(C(=O)NCCOCCOCCNc2cccc3c2C(=O)N(C2CCC(=O)NC2=O)C3=O)c(F)cc1Nc1ncc2c(n1)N(C(C)C)CC(F)(F)C(=O)N2C` (centres unmarked) [Example 167, 4-((7,7-difluoro-9-isopropyl-5-methyl-6-oxo-6,7,8,9-tetrahydro-5H-pyrimido[4,5-b][1,4]diazepin-2-yl)amino)-N-(2-(2-(2-((2-(2,6-dioxopiperidin-3-yl)-1,3-dioxoisoindolin-4-yl)amino)ethoxy)ethoxy)ethyl)-2-fluoro-5-methoxybenzamide], the Dmax was 60 to 80%.

Values taken from patent US20230372498A1, “PLK1 SELECTIVE DEGRADATION INDUCING COMPOUND” (UPPTHERA, priority 2020, published 2023).
